Measurements taken from ChEMBL document CHEMBL1201862, “PubChem BioAssay data set” (2004).
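96-well plates; 48 h exposure; 5 concentrations. Endpoints by linear interpolation between flanking doses. Not reached: highest tested concentration assigned. GI50 is the concentration that inhibits growth by half.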 Activity calls are given as the source filed them. No stated cut-off is given here; in the data, active = GI50 up to about 1.1 µM and inactive = higher.

Assays:
Assay in all cases: growth of human tumour cells (NCI), 48 h
LXFL 529 = test system: LXFL 529
SNB-75 = test system: SNB-75
Malme-3M = test system: Malme-3M
DLD-1 = test system: DLD-1
SK-MEL-5 = test system: SK-MEL-5
ACHN = test system: ACHN
OVCAR-3 = test system: OVCAR-3
DMS-273 = test system: DMS-273
NCI-H226 = test system: NCI-H226
A498 = test system: A498
HL-60 = test system: HL-60
HCC 2998 = test system: HCC 2998
KM12 = test system: KM12
TK-10 = test system: TK-10
SF-268 = test system: SF-268
NCI-H460 = test system: NCI-H460
NCI-H23 = test system: NCI-H23
K562 = test system: K562

Row | SMILES | GI50 (LXFL 529) | GI50 (SNB-75) | GI50 (Malme-3M) | GI50 (DLD-1) | GI50 (SK-MEL-5) | GI50 (ACHN) | GI50 (OVCAR-3) | GI50 (DMS-273) | GI50 (NCI-H226) | GI50 (A498) | GI50 (HL-60) | GI50 (HCC 2998) | GI50 (KM12) | GI50 (TK-10) | GI50 (SF-268) | GI50 (NCI-H460) | GI50 (NCI-H23) | GI50 (K562)
1 | O=C(CC(=O)C1CCOC1=O)C(=O)Nc1cccc(Cl)c1 (stereo unspecified) | > 100 µM (inactive) | > 100 µM (inactive) | > 100 µM (inactive) | > 100 µM (inactive) | > 100 µM (inactive) | > 100 µM (inactive) | > 100 µM (inactive) | > 100 µM (inactive) | > 100 µM (inactive) | > 100 µM (inactive) | > 100 µM (inactive) | > 100 µM (inactive) | > 100 µM (inactive) | > 100 µM (inactive) | > 100 µM (inactive) | > 100 µM (inactive) | > 100 µM (inactive) | > 100 µM (inactive)
2 | CCCCCCCCC/C=C1\CCC(CN(C)C)C1=O (stereo unspecified) | 1.34 µM (inactive) | 2.37 µM (inactive) | 3.03 µM (inactive) | 2.06 µM (inactive) | 2.05 µM (inactive) | 2.2 µM (inactive) |  | 1.69 µM (inactive) | 9.51 µM (inactive) | 2.48 µM (inactive) | 1.94 µM (inactive) | 3.5 µM (inactive) | 1.64 µM (inactive) | 2.18 µM (inactive) | 1.97 µM (inactive) | 3.43 µM (inactive) | 2.44 µM (inactive) | 1.86 µM (inactive)
3 | COC(=O)C1CCc2c(OC)ccc(OC)c2C1=O (stereo unspecified) | > 100 µM (inactive) |  | > 100 µM (inactive) | > 100 µM (inactive) | > 100 µM (inactive) | > 100 µM (inactive) | > 100 µM (inactive) | > 100 µM (inactive) |  | > 100 µM (inactive) | > 100 µM (inactive) | > 100 µM (inactive) | > 100 µM (inactive) | > 100 µM (inactive) |  | > 100 µM (inactive) | > 100 µM (inactive) | > 100 µM (inactive)
4 | COC(=O)c1ccccc1NC(=O)C(=O)Cc1nc2c3c(ccc2nc1O)C(=O)c1ccccc1C3=O | 22.6 µM (inactive) | 28.1 µM (inactive) | 8.26 µM (inactive) | 6.35 µM (inactive) | 2.99 µM (inactive) | 25 µM (inactive) | 15 µM (inactive) | 11.8 µM (inactive) | 4.48 µM (inactive) | 35.1 µM (inactive) |  | 16.8 µM (inactive) | 5.26 µM (inactive) | 23.8 µM (inactive) | 6.38 µM (inactive) | 16.2 µM (inactive) | 11.5 µM (inactive) | 23.9 µM (inactive)
5 | COc1ccc2nc3cc(Cl)ccc3c(Sc3ccc(NC(C)=O)cc3)c2c1 | 7.31 µM (inactive) | > 24 µM (inactive) | > 35.2 µM (inactive) | 6.89 µM (inactive) | > 29.3 µM (inactive) | 4.86 µM (inactive) |  | 8.09 µM (inactive) |  | > 41.7 µM (inactive) | 19.4 µM (inactive) | 2.74 µM (inactive) | 9.33 µM (inactive) | > 36.2 µM (inactive) |  | > 26.3 µM (inactive) | 13.8 µM (inactive) | 9.71 µM (inactive)
6 | CN1C(=O)CNS1(=O)=O | > 100 µM (inactive) | 38.1 µM (inactive) | > 100 µM (inactive) | > 100 µM (inactive) | > 100 µM (inactive) | > 100 µM (inactive) | > 100 µM (inactive) | > 100 µM (inactive) | > 100 µM (inactive) | > 100 µM (inactive) | > 100 µM (inactive) | > 100 µM (inactive) | > 100 µM (inactive) | > 100 µM (inactive) | > 100 µM (inactive) | > 100 µM (inactive) | > 100 µM (inactive) | > 100 µM (inactive)
7 | COc1cc2c(oc(=O)c3cc4ccoc4c(OC)c32)c2cccc(O)c12 | > 100 µM (inactive) | 60.3 µM (inactive) | > 100 µM (inactive) | > 100 µM (inactive) | > 100 µM (inactive) | > 100 µM (inactive) | > 100 µM (inactive) | > 100 µM (inactive) | > 100 µM (inactive) | > 100 µM (inactive) | > 100 µM (inactive) | > 100 µM (inactive) | > 100 µM (inactive) | > 100 µM (inactive) | > 100 µM (inactive) | > 100 µM (inactive) | > 100 µM (inactive) | > 100 µM (inactive)
8 | CC(=O)OC1COC(N2C(=O)C(=O)c3cc(Br)ccc32)C(OC(C)=O)C1OC(C)=O (stereo unspecified) | > 100 µM (inactive) | > 100 µM (inactive) | > 100 µM (inactive) | > 100 µM (inactive) | > 100 µM (inactive) | > 100 µM (inactive) | > 100 µM (inactive) | > 100 µM (inactive) | > 100 µM (inactive) | > 100 µM (inactive) |  | > 100 µM (inactive) | > 100 µM (inactive) | > 100 µM (inactive) | > 100 µM (inactive) | > 100 µM (inactive) | > 100 µM (inactive) | > 100 µM (inactive)
9 | COc1ccccc1NC(=O)C1=C(C)NC(C)=C(C(=O)Nc2ccccc2OC)C1c1ccccc1OC | > 100 µM (inactive) | 19.3 µM (inactive) | > 100 µM (inactive) | > 100 µM (inactive) | > 100 µM (inactive) | 74.5 µM (inactive) | 80.4 µM (inactive) | > 100 µM (inactive) | > 100 µM (inactive) | > 100 µM (inactive) | 75.2 µM (inactive) | > 100 µM (inactive) | > 100 µM (inactive) | > 100 µM (inactive) | > 100 µM (inactive) | 97.3 µM (inactive) | > 100 µM (inactive) | 60.5 µM (inactive)
10 | Cc1cc(C)[n+](CCOc2ccc(/C(=C(/Cl)c3ccccc3)c3ccccc3)cc2)c(C)c1.[O-][Cl+3]([O-])([O-])[O-] | 0.506 µM (active) | 0.697 µM (active) | 1.4 µM (inactive) | 3.47 µM (inactive) | 0.455 µM (active) | 10 µM (inactive) | 0.659 µM (active) | 0.366 µM (active) | 1.32 µM (inactive) | 3.87 µM (inactive) | 0.215 µM (active) | 0.701 µM (active) | 0.697 µM (active) | 3.52 µM (inactive) | 0.933 µM (active) | 1.25 µM (inactive) | 0.869 µM (active) | 0.257 µM (active)
11 | O=C(CC(=O)N1N=C(c2ccccc2)C(/N=N/c2ccc(Cl)cc2)C1=O)Nc1ccccc1Cl (stereo unspecified) | 26.7 µM (inactive) | 16.4 µM (inactive) |  | 30.3 µM (inactive) | 18.1 µM (inactive) | 15.6 µM (inactive) | 24.3 µM (inactive) | 32.2 µM (inactive) | 19 µM (inactive) | > 10 µM (inactive) | 26.6 µM (inactive) | 68.7 µM (inactive) | 33.8 µM (inactive) | 16.6 µM (inactive) | 22.5 µM (inactive) | 42.1 µM (inactive) | 29.4 µM (inactive) | 36.7 µM (inactive)
12 | COC(=O)C(C(=O)C(N)=O)c1csc(-n2nc(-c3ccccc3)cc2-c2ccccc2)n1 (stereo unspecified) | > 31.6 µM (inactive) | > 31.6 µM (inactive) | > 31.6 µM (inactive) | > 31.6 µM (inactive) | 28.7 µM (inactive) | > 31.6 µM (inactive) | 43.2 µM (inactive) | > 31.6 µM (inactive) | 20.9 µM (inactive) | > 31.6 µM (inactive) | 26.1 µM (inactive) | > 31.6 µM (inactive) | 22.6 µM (inactive) | 21.5 µM (inactive) | > 31.6 µM (inactive) | > 31.6 µM (inactive) | > 100 µM (inactive) | 23.8 µM (inactive)
